Each compound was assayed against PD-1/PD-L1 (Homo sapiens (Human), UniProt Q9NZQ7) (assay: Homogenouse Time-Resolved Fluorescence (HTRF) binding assay PD-1/PD-L1). Conditions: CisBio kit #64CUS000C-1.
Protocol: Homogenouse Time-Resolved Fluorescence (HTRF) binding assay was used to determine the binding activity of the compound of the present disclosure to PD-1/PD-L1.
The purchased kit (CisBio, #64CUS000C-1) contained the reagents required for experiments such as PD-1, PD-L1, anti-tag1-Eu, Anti-tag2-XL665, Dilute Buffer and Detection Buffer.
1. The compound was formulated to 10 concentrations with a three-fold concentration gradient with 100% DMSO.
2. The solution of the compound in DMSO was added to Dilute Buffer, and mixed evenly and then transferred to a 96-well plate.
3. PD-L1 was diluted with Dilute Buffer and added to the 96-well plate above.
4. PD-1 was diluted with Dilute Buffer, then added to the 96-well plate above and incubated at room temperature for 30 minutes.
5. One portion of anti-tag1-Eu and one portion of anti-tag2-XL665 were added to Detection Buffer, mixed evenly and transferred to the 96-well plate above.
6. The mixed solution in the 96-well plate were incubated at room temperature for 1 to 24 hours.
7. HTRF values were read by Envision.

Chain of PD-1/PD-L1 (Q9NZQ7 19-238): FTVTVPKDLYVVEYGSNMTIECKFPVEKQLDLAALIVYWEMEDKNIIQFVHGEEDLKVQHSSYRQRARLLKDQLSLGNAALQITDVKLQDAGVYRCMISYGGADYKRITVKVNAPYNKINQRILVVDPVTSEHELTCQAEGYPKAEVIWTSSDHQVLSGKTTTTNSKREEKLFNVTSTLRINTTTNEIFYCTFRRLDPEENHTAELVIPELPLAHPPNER

Structure (SMILES) | IC50 [nM]
Cc1c(/C=C/c2cc(CN[C@@](C)(CO)C(=O)O)ccc2C(F)(F)F)cccc1-c1ccc2nccn2c1 [Compound 36] | > 10000
Cc1c(/C=C/c2cc(CN[C@@](C)(CO)C(=O)O)ccc2C(F)(F)F)cccc1-c1cn2ccnc2cn1 [Compound 37] | 1300
Cc1nc2ccc(-c3cccc(/C=C/c4cc(CN[C@@](C)(CO)C(=O)O)ccc4C(F)(F)F)c3C)cc2o1 [Compound 43, (S,E)-3-hydroxy-2-methyl-2-(3-(2-methyl-3-(2-methylbenzo[d]oxazol-6-yl)-styryl)-4-(trifluoromethyl)benzylamino)-3-hydroxy-2-methylpropanoic acid] | 540

From patent US11384048B2, “Aromatic vinyl or aromatic ethyl derivative, preparation method therefor, intermediate, pharmaceutical composition, and application” (GUANGZHOU MAXINOVEL PHARMACEUTICALS CO., LTD., priority 2017, dated 2022)
